Experimental findings from patent US20230285383A1, “TREATMENT OF SKIN DISEASES” (Ichilov Tech Ltd., priority 2020, published 2023) are described below.

The subject of experiment [1] is SAMD9. Kind of experiment: SAMD9 expression by qRT-PCR in HeLa cells. The format is cell-based, human. The protocol: (§1) HeLa cells were cultured in DMEM 4.5 g/l glucose medium containing 10% FCS, 1% L-glutamine and 1% penicillin and streptomycin (Biological Industries) and grown at 37° C. and 5% CO2.
(§2) Of note, when cells were incubated with CPT and CPT-11, they were grown in the appropriate medium with 0.1% FCS only.
(§3) RNA was extracted from cell cultures using an RNA extraction kit (Roche Diagnostics, Mahheim, Germany). cDNA was synthesized from 500 ng of total RNA using the Verso cDNA kit (Thermo Fisher Scientific, Waltham, Mass., USA) or qScript kit (Quanta Biosciences, Gaithersburg, Md., USA). cDNA PCR amplification was carried out using the Fast SYBR Green Master Mix in a StepOnePlus™ Real-Time PCR System (Applied Biosystems, Foster City, Calif., USA) with gene-specific intron-crossing oligonucleotide pairs listed in Table 1 (below). For quantification, standard curves were obtained using serially diluted cDNA amplified in the same qRT-PCR run. The melting temperature (Tm) of the amplified products was measured to confirm the specificity of the reaction conditions. […] Each sample was analyzed in triplicate. mRNA expression level for target gene was normalized to GAPDH. The results are based the amount of target, normalized to an endogenous reference (IACTB) and relative to a calibrator, as calculated by 2-ΔΔCT. […] The expression levels of target genes were expressed as mRNA relative units. […]

In a further experiment the test system is EGR1. Nature of the experiment: EGR1 expression by qRT-PCR in Hela cells. It is filed as cell-based, human. As to the method:
as §1, §2, §3

The test system of a further experiment is human psoriatic skin. Kind of experiment: Chimeric mice carrying human psoriatic skin. The following applies: i.p., 10 days; CPT 3 mg/kg five times a week; CPT-11 30 or 50 mg/kg three times a week. The format is in vivo, SCID mice. The source says:
Chimeric mice carrying human psoriatic skin were generated using SCID mice, 2-3 months of age. Animals were maintained in a pathogen-free animal facility. A psoriasis-like phenotype was induced in normal human skin grafted onto the mice by intradermal injection of natural killer/T cells derived from psoriatic patients as previously described [Gilhar A et al. J Invest Dermatol (2011) 131: 118-124].
(§4) Formaldehyde-fixed 5-μm paraffin-embedded sections from skin biopsies were deparaffinized and treated with 3% H2O2 in methanol for 15 minutes at room temperature, warmed in a microwave oven in citrate buffer in a pressure cooker for 25 minutes, and stained with a monoclonal anti-Ki67 antibody (Thermo Scientific) for 1 hour at room temperature. Following 3 washings (10 minutes each) with phosphate-buffered saline (PBS), the antibodies were imaged using the ABC technique (Zymed Laboratories, South San Francisco, Calif.) and the slides were counterstained with hematoxylin.
Epidermal thickness was defined as the distance between the granular layer and the basement membrane and was measured at 10 randomly selected locations for each biopsy using NIS-Elements BR 3.2 software (Nikon, NY USA). An image was taken and was manually measured in the software by selecting an upper and lower border, as defined above. The distance was measured in microns.
To assess the potential therapeutic role of the compounds of some embodiments of the invention, the two compounds were administered systemically (i.p) to chimeric mice carrying human psoriatic skin.
In short, SCID mice, 2-3 months of age, were maintained in a pathogen-free animal facility. A psoriasis-like phenotype was induced in normal human skin grafted onto the mice by intradermal injection of natural killer/T cells derived from psoriatic patients as previously described [Gilhar A et al. J Invest Dermatol (2011) 131: 118-124].
Two weeks after natural killer/T-cell injection (6 weeks after human skin grafting), mice were injected i.p. five times a week. Five groups of mice were treated as follows: one group of mice was injected five times a week with the vehicle (10% DMSO in […] was used as a vehicle control); a second group of mice was injected five times a week CPT (3 mg/kg); a third group of mice was injected three times a week CPT-11 (50 mg/kg); a fourth group of mice was injected three times a week CPT-11 (30 mg/kg); and a fifth group of mice, was treated with dexamethasone (DEX) cream applied 5 times a week on the graft, as positive control (DEX was expected to attenuate inflammation in this model). Each group included six mice, and the treatment was performed for a total of 10 days. The grafts were harvested from the five groups of mice, paraffin-embedded, stained for hematoxylin and eosin (H&E), analyzed and scored for the average improvement of the clinical and histological psoriasiform phenotype.

A further experiment relates to HeLa cells. Nature of the experiment: RNA sequence analysis of HeLa cells treated with CPT. The format is cell-based, human. The following applies: 10 μM, 48 hours. The protocol: FIG. 10A presents RNA-seq analysis of HeLa cells treated with CPT. HeLa cells were treated with 10 μM CPT or DMSO for 48 hours (three independent experiments). Total RNA was extracted and sent to RNA-seq. Volcano plot represents the number of genes that were differentially expressed. […] P-value for enrichment for genes belongs to a known psoriasis related pathogenic pathways (taken from IPA database) was calculated using hypergeometric distribution (using a background of 24190 genes).
HeLa cells were treated with 10 μM CPT or DMSO for 48 hours (three independent experiments). Total RNA was extracted and sent to RNA-sequencing.
The obtained data is presented in FIGS. 10A-B. FIG. 10A presents a volcano plot that show the number of statistically significant differential gene (DE) as response to CPT treatment. […] In addition, calculation of p-value for enrichment for genes belongs to a known psoriasis related pathogenic pathways (taken from IPA database) using hypergeometric distribution (using a background of 24190 genes). The table in FIG. 10B summarizes the number of genes in each group, the number of differentially expressed genes, the overlap, and the adjusted p-value (after correcting for multiple testing).

The test system of experiment [2] is SAMD9. Nature of the experiment: SAMD9 expression by qRT-PCR in TERC-transformed fibroblasts. It is filed as cell-based, human. The following applies: 5 μM, 24 hours, relative to DMSO. The protocol:
TERC-transformed fibroblasts were transformed with a pBABE-H2AGFP construct containing the human telomerase gene were cultured High Glucose DMEM, 10% FCS, L-glutamine and Pen-Strep (all cell culture regents from Biological Industries, Israel). Medium was changed every 2-3 days. Cells were used at passage 2-3.
as §2
as §3, with “GAPDH.” for “GAPDH. The results are based the amount of target, normalized to an endogenous reference (IACTB) and relative to a calibrator, as calculated by 2-ΔΔCT.”

The test system of experiment [3] is SAMD9. Kind of experiment: SAMD9 expression by qRT-PCR in primary fibroblasts. The format is cell-based, human. The protocol:
Primary fibroblasts were isolated from human adult skin and were grown in High Glucose DMEM, 10% Fetal Bovine Serum, L-glutamine and Pen-Strep. Medium was changed every 2-3 days. Cells were used at passage 2-3.
as §2
RNA was extracted from cell cultures using an RNA extraction kit (Roche Diagnostics, Mahheim, Germany). cDNA was synthesized from 500 ng of total RNA using the Verso cDNA kit (Thermo Fisher Scientific, Waltham, Mass., USA) or qScript kit (Quanta Biosciences, Gaithersburg, Md., USA). cDNA PCR amplification was carried out using the Fast SYBR Green Master Mix in a StepOnePlus™ Real-Time PCR System (Applied Biosystems, Foster City, Calif., USA) with gene-specific intron-crossing oligonucleotide pairs listed in Table 1 (below). For quantification, standard curves were obtained using serially diluted cDNA amplified in the same qRT-PCR run. The melting temperature (Tm) of the amplified products was measured to confirm the specificity of the reaction conditions. […] Each sample was analyzed in triplicate. mRNA expression level for target gene was normalized to GAPDH. The results are based the amount of target, normalized to an endogenous reference (IACTB) and relative to a calibrator, as calculated by 2-ΔΔCT. […]
SAMD9 expression was measured via qRT-PCR, in triplicates. […]

Experiment [4] relates to imiquimod-induced psoriasiform dermatitis. Kind of experiment: Imiquimod-induced psoriasiform dermatitis in mice. It is filed as in vivo, Balb/c mice. Conditions: 7.5 mg/Kg i.p., biopsies at day 6, vs vehicle. The protocol:
Balb/c mice (Harlan Laboratories Ltd, Jerusalem, Israel), 9 weeks of age, were maintained in a pathogen-free animal facility. Animal care and research protocols had been approved by the institutional committee for animal use. Imiquimod 5% (Perrigo, Israel) was topically applied to the mice on their upper backs.
as §4
Epidermal thickness was defined as the distance between the granular layer and the basement membrane and was measured at 10 randomly selected locations for each biopsy using NIS-Elements BR 3.2 software (Nikon, NY USA). An image was taken and was manually measured in the software by selecting an upper and lower border, as defined above. The distance was measured in microns. […]

Setting [5] is: Hela cells, 1-10 μM for 48 hours, or 10 μM for 48 and 72 hours.

Each structure is given as a SMILES string.

Regarding `CCc1c2c(nc3ccc(OC(=O)N4CCC(N5CCCCC5)CC4)cc13)-c1cc3c(c(=O)n1C2)COC(=O)[C@]3(O)CC` [CPT-11, Irinotecan], the SAMD9 expression result with SAMD9 [1] (setting [5]) is reported as “substantial induction of SAMD9 expression”. The EGR1 expression result with EGR1 (setting [5]) is reported as “substantial down-regulation of EGR1”. In addition, in the experiment with human psoriatic skin, the “clinical and histological psoriasiform phenotype” value was “significant clinical and histological attenuation of the psoriasiform phenotype”; the epidermal thickness result is recorded as “significant decrease”; the inflammation index result is “significant decrease”; the “keratinocyte proliferation (Ki67)” value is “significant decrease”.
Regarding `CC[C@@]1(O)C(=O)OCc2c1cc1n(c2=O)Cc2cc3ccccc3nc2-1` [CPT, Camptothecin], in the experiment on HeLa cells (enrichment by hypergeometric distribution), the “expression of genes of psoriasis related pathways” value is listed as “significant turnover in expression of many genes belongs to psoriasis related pathways”. In the experiment on HeLa cells (vs DMSO, FDR<0.01), the “number of genes downregulated” value came out at 1192 and the “number of genes upregulated” value was determined as 1664. Also, in the experiment on SAMD9 [2], the SAMD9 expression entry is reported as “significant induction of SAMD9 expression”. Besides, the SAMD9 expression result with SAMD9 [1] (HeLa cells, 5 μM, 24 hours, relative to DMSO) is reported as “significant induction of SAMD9 expression”. In addition, in the experiment on SAMD9 [3] (1 μM, 2 μM, 5 μM and 10 μM), the “SAMD9 expression, dose dependence” value is “up-regulate SAMD9 expression in a dose dependent manner”. The SAMD9 expression entry with SAMD9 [3] (5 μM, 24 hours, relative to DMSO) is listed as “significant induction of SAMD9 expression”. Further, the EGR1 expression entry in the experiment with EGR1 (10 μM, 24, 48 and 72 hours, result sentence prints primary fibroblast cells, method Hela cells) was “significantly down-regulated EGR1 expression”. For the same compound, in the experiment on human psoriatic skin, the “clinical and histological psoriasiform phenotype” value was “significant clinical and histological attenuation of the psoriasiform phenotype”; the epidermal thickness result was “significant decrease”; the inflammation index result is recorded as “significant decrease”; the “keratinocyte proliferation (Ki67)” value is listed as “significant decrease”. Besides, in experiment [4], the epidermal thickness entry is recorded as “decrease in epidermal thickness” and the “index of proliferation (Ki67)” value is “decrease”.
